# ChEMBL document CHEMBL1140968, “QSAR, action mechanism and molecular design of flavone and isoflavone derivatives with cytotoxicity against HeLa” (2008)
# Test system: HeLa
# Assay: Cytotoxicity against human HeLa cells
# Format: functional
SMILES,GC50 [µM],pGC50
CO/N=C(/COc1ccc2oc(-c3ccccc3)cc(=O)c2c1)c1ccc(OC)cc1,2,5.699
CO/N=C(\C)COc1ccc2c(=O)c(-c3ccccc3)coc2c1,8.5,5.071
O=c1c(OC/C(=N/O)c2ccccc2)c(-c2ccccc2)oc2ccccc12,1.8,5.745
O=c1c(OC/C(=N/O)c2ccc(F)cc2)c(-c2ccccc2)oc2ccccc12,2.1,5.678
C/C(COc1c(-c2ccccc2)oc2ccccc2c1=O)=N\O,2,5.699
CO/N=C(\C)COc1c(-c2ccccc2)oc2ccccc2c1=O,2,5.699
CO/N=C(\C)COc1ccc2oc(-c3ccccc3)cc(=O)c2c1,0.9,6.046
CO/N=C(\C)COc1ccc2c(=O)cc(-c3ccccc3)oc2c1,2.2,5.658
C/C(COc1ccc2oc(-c3ccccc3)cc(=O)c2c1)=N\O,1.2,5.921
C/C(COc1ccc2c(=O)c(-c3ccccc3)coc2c1)=N\O,9.8,5.009
O=c1cc(-c2ccccc2)oc2ccc(OC/C(=N/O)c3ccccc3)cc12,0.8,6.097
O=c1cc(-c2ccccc2)oc2ccc(OC/C(=N/O)c3ccc(F)cc3)cc12,1.6,5.796
O=c1cc(-c2ccccc2)oc2cc(OC/C(=N/O)c3ccccc3)ccc12,2,5.699
CO/N=C(/COc1c(-c2ccccc2)oc2ccccc2c1=O)c1ccc(F)cc1,2,5.699
CO/N=C(/COc1c(-c2ccccc2)oc2ccccc2c1=O)c1ccc(OC)cc1,2,5.699
CO/N=C(/COc1ccc2oc(-c3ccccc3)cc(=O)c2c1)c1ccc(F)cc1,2.3,5.638

SMILES,GC50 [µM],pGC50
O=c1cc(-c2ccccc2)oc2cc(OC/C(=N/O)c3ccc(F)cc3)ccc12,2,5.699
CO/N=C(/COc1ccc2c(=O)c(-c3ccccc3)coc2c1)c1ccccc1,8.2,5.086
COc1ccc(/C(COc2ccc3c(=O)cc(-c4ccccc4)oc3c2)=N\O)cc1,2,5.699
O=c1c(-c2ccccc2)coc2cc(OC/C(=N/O)c3ccccc3)ccc12,9,5.046
CO/N=C(/COc1c(-c2ccccc2)oc2ccccc2c1=O)c1ccccc1,1.6,5.796
CO/N=C(/COc1ccc2c(=O)cc(-c3ccccc3)oc2c1)c1ccccc1,6.6,5.18
CO/N=C(/COc1ccc2c(=O)cc(-c3ccccc3)oc2c1)c1ccc(F)cc1,2.7,5.569
CO/N=C(/COc1ccc2c(=O)cc(-c3ccccc3)oc2c1)c1ccc(OC)cc1,2.5,5.602
CO/N=C(/COc1ccc2c(=O)c(-c3ccccc3)coc2c1)c1ccc(F)cc1,6.4,5.194
CO/N=C(/COc1ccc2c(=O)c(-c3ccccc3)coc2c1)c1ccc(OC)cc1,7.3,5.137
O=c1c(-c2ccccc2)coc2cc(OC/C(=N/O)c3ccc(F)cc3)ccc12,7.8,5.108
C/C(COc1ccc2c(=O)cc(-c3ccccc3)oc2c1)=N\O,2,5.699
COc1ccc(/C(COc2ccc3oc(-c4ccccc4)cc(=O)c3c2)=N\O)cc1,1,6
CO/N=C(/COc1ccc2oc(-c3ccccc3)cc(=O)c2c1)c1ccccc1,2.4,5.62
COc1ccc(/C(COc2ccc3c(=O)c(-c4ccccc4)coc3c2)=N\O)cc1,7.6,5.119
COc1ccc(/C(COc2c(-c3ccccc3)oc3ccccc3c2=O)=N\O)cc1,2,5.699
